The values that follow come from patent publication US10973819B2, “Small molecules inhibitors of RAD51” (The University of Chicago, priority 2016, dated 2021).

Each structure is given as a SMILES string. “Also recorded” adds a separate entry of the source. Read-outs that look alike come from different tables or passages of the source.

Assay [1] has as its target T1, RAD51 (Homo sapiens, UniProt Q06609).
T1 sequence (Q06609 1-339): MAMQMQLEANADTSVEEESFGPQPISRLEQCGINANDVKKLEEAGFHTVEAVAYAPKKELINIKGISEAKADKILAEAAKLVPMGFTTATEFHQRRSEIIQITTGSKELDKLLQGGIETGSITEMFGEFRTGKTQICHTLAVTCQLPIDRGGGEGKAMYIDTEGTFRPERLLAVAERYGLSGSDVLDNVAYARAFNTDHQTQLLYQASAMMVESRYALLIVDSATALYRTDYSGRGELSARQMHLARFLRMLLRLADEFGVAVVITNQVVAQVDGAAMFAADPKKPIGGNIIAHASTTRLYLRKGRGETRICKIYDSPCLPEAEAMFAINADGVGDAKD
Description: Gel-based D-loop assay. To be noted: for IC50: read-out: D-Loops IC50; for D-loop inhibitory activity, in words: summary of Tables 2 and 3. The class given is biochemical. As for the experimental part: Human RAD51 in reaction buffer was combined with compound in […] DMSO, incubated at 37° C. for 10 min, and then 1 μl of 5′-^32P-labeled 90-mer ssDNA (5′-[…]) with homology to the plasmid pRS306 ^34 was added and the reaction was incubated at 37° C. for an additional 5 minutes. 1 μl of supercoiled pRS306 was then added to the reaction and incubated at 37° C. for 20 minutes; at this point the reaction consisted of 25 mM HEPES-NaOH (pH 7.0), 1 mM ATP, 1 mM MgCl2, 1 mM DTT, 1.5 μM BSA, 4.5% DMSO, 0.5 μM RAD51, 11 mM NaCl, 1% glycerol, 20 nM ssDNA, and 5 nM pRS306. The reactions were de-proteinized with 0.8% SDS and 0.8 mg/ml proteinase K, mixed with gel loading buffer, and run on a 0.9% agarose/1×TAE gel, which was dried and exposed to a phosphor screen overnight and imaged on a Storm 860 PhosphorImager. Compound IC50 values were obtained by least-squares regression fitting of appropriate linear, log, or sigmoid dose-response models to the data, with the standard error indicated.
To improve upon the D-loop inhibitory activity, medicinal chemical studies were undertaken to optimize 8. First, different functional groups were appended to rings A and B as substituents, including alkyl groups of different sizes, electron withdrawing/donating groups, and hydrogen bond donor/acceptor groups. Next, replacement of the phenyl ring B with different heterocycles or other saturated/unsaturated rings was investigated in order to probe its role. For each of the prepared compounds, the gel-based D-loop assay and the microplate-based DNA binding assay were used to characterize the biochemical activities.

The target in assay [2] is T1, RAD51. Description: Fluorescence polarization-based DNA binding assay (RAD51-ssDNA binding). The class given is biochemical. To be noted: for ssDNA binding IC50 / IC50: Stim = stimulator; for Emax: read-out: ssDNA binding Max effect; for influence on RAD51-ssDNA binding, in words: summary of Tables 2 and 3. As for the experimental part:
The fluorescence polarization-based DNA binding assay and purification of human RAD51 used for this assay was performed as previously described with a few modifications.^23 Reactions were carried out in black 384-well polystyrene plates. In each well, RAD51 protein was combined with reaction buffer and varying concentrations of compound in DMSO in an initial volume of 40 μl and incubated at 37° C. for 40 minutes. Then, 10 μl of reaction buffer containing fluorescently-labeled ssDNA substrate (5′-Alexa488-oligo-dT45) was added and the reaction incubated at 37° C. for another 40 minutes, after which the plate was read on a Tecan Infinite 200 Pro plate reader equipped with two sets of 485±25 nm/535±35 nm with parallel or perpendicularly-oriented polarization filters. In both steps of the reaction setup, buffer components were maintained at 20 mM HEPES-NaOH (pH 7.5), 2 mM ATP, 10 mM MgCl2, 0.1 mM TCEP-HCl (tris(2-carboxyethyl)phosphine), and 0.25 μM BSA. The final reaction contained 4% DMSO, 0.2 μM RAD51, 30 mM NaCl, 2% glycerol, and 2.22 nM ssDNA substrate. Compound IC50 values were obtained by least-squares regression fitting of appropriate linear, log, or sigmoid dose-response models to the data, with the standard error indicated. […]

Setting [3] is: Table 3, cells marked ↓: compound inhibits RAD51-ssDNA binding.
[4] abbreviates: Table 2, cells marked ↓: compound inhibits RAD51-ssDNA binding.
Where [5] appears, read: Table 3, cells marked ↑: compound stimulates RAD51-ssDNA binding.
Where [6] appears, read: Table 2, cells marked ↑: compound stimulates RAD51-ssDNA binding.

With `COc1ccc2c(c1)nc(-c1ccc(N(C)C)cc1)c1cccn12` [Compound 8, 4-(7-Methoxypyrrolo[1,2-a]quinoxalin-4-yl)-N,N-dimethylaniline], on RAD51 [1] (Table 1), the “D-Loops Max inhibition effect” value worked out at 67% and the concentration for half-maximal inhibition (IC50) was 13 µM. On RAD51 [2] (Table 1), the “ssDNA binding IC50” value was “Stim”. Besides, on RAD51 [2] (Table 1, cells marked ↑: compound stimulates RAD51-ssDNA binding), the Emax stood at 40 ± 28%.
On to `O=[N+]([O-])c1ccc(-c2nc3cc(O)ccc3n3cccc23)cc1` [Compound 12e, 4-(4-Nitrophenyl)pyrrolo[1,2-a]quinoxalin-7-ol], for which the IC50 on RAD51 [2] (Table 3) amounted to 57.8 ± 3 µM. Besides, the Emax on RAD51 [2] (setting [3]) was determined as 92 ± 21%.
As to `COc1ccc2c(c1)nc(-c1ccc(O)cc1)c1cccn12` [Compound 12a, 4-(7-Methoxypyrrolo[1,2-a]quinoxalin-4-yl)phenol], on RAD51 [1] (Table 3), the “D-Loops Max inhibition effect” value is listed as 13 ± 12% and the IC50 is more than 100 µM. Also, the IC50 at RAD51 [2] (Table 3) was 35 ± 14 µM. For the same molecule, the Emax on RAD51 [2] (setting [3]) came out at 100 ± 18%. In addition, the “influence on RAD51-ssDNA binding, in words” value (shortened to “influence”) on RAD51 [2] was “relatively strong ssDNA binding inhibition”.
In the case of `COc1ccc2c(c1)nc(-c1ccc(N)cc1)c1cccn12` [Compound 12c, 4-(7-Methoxypyrrolo[1,2-a]quinoxalin-4-yl)aniline], at RAD51 [1] (Table 3), the “D-Loops Max inhibition effect” value is listed as 100 ± 4% and the IC50 came out at 13.2 µM. The molecule also yielded a half-inhibitory concentration (IC50) on RAD51 [2] (Table 3) of more than 100 µM. In addition, at RAD51 [2] (setting [3]), the Emax was found to be 29 ± 8%. Besides, on RAD51 [2], the “influence” value is “only weakly influenced”.
In the case of `Nc1cccc(-c2nc3ccccc3n3cccc23)c1` [Compound 9c, 3-(Pyrrolo[1,2-a]quinoxalin-4-yl)aniline], the 50% inhibitory concentration (IC50) at RAD51 [1] (Table 2) was 91.1 ± 10.3 µM. At RAD51 [2] (setting [4]), the Emax is 11 ± 9%.
Take `Oc1ccc(-c2nc3ccccc3n3cccc23)cc1` [Compound 9d]: the Emax on RAD51 [2] (setting [4]) turned out to be 14 ± 16%.
For `c1ccc2c(c1)nc(-c1ccncc1)c1cccn12` [Compound 11b, 4-(Pyridin-4-yl)pyrrolo[1,2-a]quinoxaline], at RAD51 [1] (Table 2), the IC50 was 79.4 ± 6 µM. The “D-loop inhibitory activity, in words” value on RAD51 [1] was “moderate”. In addition, the Emax at RAD51 [2] (setting [4]) was 7 ± 38%.
As for `CN(C)c1ccc(-c2nc3cc(F)c(F)cc3n3cccc23)cc1` [Compound 12m, 4-(7,8-Difluoropyrrolo[1,2-a]quinoxalin-4-yl)-N,N-dimethylaniline], the “D-loop inhibitory activity, in words” value at RAD51 [1] is reported as “nearly absent”. Further, the “ssDNA binding IC50” value at RAD51 [2] (Table 3) is listed as “Stim”. Further, the Emax at RAD51 [2] (setting [5]) turned out to be 65 ± 22%.
On to `CCCOc1ccc2c(c1)nc(-c1ccc(N)cc1)c1cccn12` [Compound 15a, 4-(7-Propoxypyrrolo[1,2-a]quinoxalin-4-yl)aniline], for which the IC50 at RAD51 [1] (Table 3) was 46.1 ± 2.8 µM. Further, the “ssDNA binding IC50” value on RAD51 [2] (Table 3) is given as “Stim”. For the same molecule, on RAD51 [2] (setting [5]), the Emax was 117 ± 18%. For the same molecule, the “influence” value on RAD51 [2] was “stimulators”.
In the case of `c1cncc(-c2nc3ccccc3n3cccc23)c1` [Compound 11a, 4-(Pyridin-3-yl)pyrrolo[1,2-a]quinoxaline], the values for the half-inhibitory concentration (IC50) at RAD51 [1] (Table 2) and on RAD51 [2] (Table 2) were 71.7 ± 18.1 µM and more than 100 µM, respectively. For the same molecule, on RAD51 [1], the “D-loop inhibitory activity, in words” value was “moderate”. Besides, the Emax at RAD51 [2] (setting [4]) came out at 6 ± 10%.
Consider `Nc1ccc(-c2nc3cc(OCCF)ccc3n3cccc23)cc1` [Compound 15b, 4-(7-(2-Fluoroethoxy)pyrrolo[1,2-a]quinoxalin-4-yl)aniline], for which the IC50 at RAD51 [1] (Table 3) amounted to 20 ± 4.1 µM. The “ssDNA binding IC50” value on RAD51 [2] (Table 3) is “Stim”. In addition, the Emax at RAD51 [2] (setting [5]) came to 79 ± 23%. The “influence” value at RAD51 [2] was “stimulators; also recorded: modest effects”.
For `CN(C)c1ccc(-c2nc3cc(F)ccc3n3cccc23)cc1` [Compound 12j, 4-(7-Fluoropyrrolo[1,2-a]quinoxalin-4-yl)-N,N-dimethylaniline], the “D-loop inhibitory activity, in words” value at RAD51 [1] is recorded as “nearly absent”. Moreover, the “ssDNA binding IC50” value at RAD51 [2] (Table 3) was “Stim”. In addition, the Emax on RAD51 [2] (setting [5]) is 57 ± 28%.
For the molecule `Oc1ccc(-c2nc3cc(O)ccc3n3cccc23)cc1` [Compound 12d, 4-(4-Hydroxyphenyl)pyrrolo[1,2-a]quinoxalin-7-ol], the IC50 is 27.6 ± 4.9 µM at RAD51 [1] (Table 3) and more than 100 µM on RAD51 [2] (Table 3). Further, the Emax at RAD51 [2] (setting [3]) is 72 ± 11%.
For `C1=C(c2nc3ccccc3n3cccc23)CCCC1` [Compound 11c, 4-(Cyclohex-1-en-1-yl)pyrrolo[1,2-a]quinoxaline], on RAD51 [1], the “D-loop inhibitory activity, in words” value is “weak”. In addition, the “ssDNA binding IC50” value on RAD51 [2] (Table 2) was “Stim”. Further, the Emax on RAD51 [2] (setting [6]) was 42 ± 17%. Also, at RAD51 [2], the “influence” value is “modest influence”.
Consider `Oc1ccc2c(c1)nc(-c1cccnc1)c1cccn12` [Compound 13b, 4-(Pyridin-3-yl)pyrrolo[1,2-a]quinoxalin-7-ol], for which the “D-Loops Max inhibition effect” value on RAD51 [1] (Table 3) was found to be 53 ± 30%. Besides, the Emax at RAD51 [2] (setting [3]) is 87 ± 10%.
On to `FC(F)(F)Oc1ccc(-c2nc3ccccc3n3cccc23)cc1` [Compound 9e, 4-(4-(Trifluoromethoxy)phenyl)pyrrolo[1,2-a]quinoxaline], for which the “ssDNA binding IC50” value on RAD51 [2] (Table 2) is “Stim”. The Emax at RAD51 [2] (setting [6]) turned out to be 30 ± 21%.
In the case of `c1ccc2c(c1)nc(-c1ccc(N3CCCC3)cc1)c1cccn12` [Compound 9i, 4-(4-(Pyrrolidin-1-yl)phenyl)pyrrolo[1,2-a]quinoxaline], on RAD51 [2] (Table 2), the “ssDNA binding IC50” value was “Stim”. Besides, on RAD51 [2] (setting [6]), the Emax worked out at 69 ± 35%. Also, the “influence” value on RAD51 [2] is “modest influence”.
For `Nc1ccc(-c2nc3cc(F)c(F)cc3n3cccc23)cc1` [Compound 12l, 4-(7,8-Difluoropyrrolo[1,2-a]quinoxalin-4-yl)aniline], the half-maximal inhibitory concentration (IC50) was 34 ± 2.9 µM on RAD51 [1] (Table 3) and more than 100 µM at RAD51 [2] (Table 3). For the same molecule, at RAD51 [2] (setting [3]), the Emax worked out at 42 ± 8%.
Take `COc1ccc2c(c1)nc(-c1ccc([N+](=O)[O-])cc1)c1cccn12` [Compound 12b, 7-Methoxy-4-(4-nitrophenyl)pyrrolo[1,2-a]quinoxaline]: the “ssDNA binding IC50” value at RAD51 [2] (Table 3) is listed as “Stim”. For the same molecule, the Emax on RAD51 [2] (setting [5]) came out at 105 ± 47%. Moreover, at RAD51 [2], the “influence” value was “stimulators”.
For `c1ccc2c(c1)nc(-c1ccc(N3CCOCC3)cc1)c1cccn12` [Compound 9j, 4-(4-(Pyrrolo[1,2-a]quinoxalin-4-yl)phenyl)morpholine], at RAD51 [1] (Table 2), the “D-Loops Max inhibition effect” value is 68 ± 7% and the IC50 came out at 27.2 ± 3 µM. Moreover, the Emax on RAD51 [2] (setting [4]) was determined as 11 ± 19%.
In the case of `CN(C)c1ccc(-c2nc3cc(OC(C)(C)C(N)=O)ccc3n3cccc23)cc1` [Compound 16, 2-((4-(4-(Dimethylamino)phenyl)pyrrolo[1,2-a]quinoxalin-7-yl)oxy)-2-methylpropanamide], the half-inhibitory concentration (IC50) at RAD51 [1] (Table 3) is more than 100 µM. For the same molecule, at RAD51 [2] (Table 3), the “ssDNA binding IC50” value is given as “Stim”. Moreover, the Emax at RAD51 [2] (setting [5]) was determined as 131 ± 28%. Also, the “influence” value at RAD51 [2] is given as “stimulators”.
Regarding `O=[N+]([O-])c1ccc(-c2nc3ccccc3n3cccc23)cc1` [Compound 9f, 4-(4-Nitrophenyl)pyrrolo[1,2-a]quinoxaline], the Emax at RAD51 [2] (setting [4]) was determined as 16 ± 13%.
As for `COc1ccc2c(c1)nc(-c1cccnc1)c1cccn12` [Compound 13a, 7-Methoxy-4-(pyridin-3-yl)pyrrolo[1,2-a]quinoxaline], at RAD51 [1] (Table 3), the “D-Loops Max inhibition effect” value was found to be 74 ± 5% and the half-maximal inhibitory concentration (IC50) was determined as 38.6 ± 6.2 µM. Further, at RAD51 [2] (setting [3]), the Emax came to 16 ± 28%.
For the molecule `O=[N+]([O-])c1cccc(-c2nc3ccccc3n3cccc23)c1` [Compound 9b, 4-(3-Nitrophenyl)pyrrolo[1,2-a]quinoxaline], the Emax at RAD51 [2] (setting [4]) is 52 ± 14%. The “influence” value on RAD51 [2] is given as “modest influence”.

Usually IC50 stands for the concentration that gives 50% inhibition.
